In article PMC11249017 (Journal of Medicinal Chemistry, 2024):
pIC50: −log10 of the molar value. “Also recorded” adds a separate entry of the source. Marks after values point to notes of the source that are not given here.

Legend:
ML-2 [1] = experiment: Apoptosis assay AnnexinV/7-AAD; assay type: cell-based; conditions: 30 μM, 24 h
Molm-13 [2] = experiment: Apoptosis assay AnnexinV/7-AAD; assay type: cell-based; conditions: 30 μM, 24 h
Molm-13 [3] = experiment: Cell viability; assay type: cell-based; conditions: 30 μM, 72 h
ML-2 [4] = experiment: Cell viability; assay type: cell-based; conditions: 30 μM, 72 h
[5] = test system: capsaicin-induced TRPV1 responses in mouse primary sensory neurons; experiment: Calcium-imaging-based TRPV1 sensitization assay; assay type: cell-based
human G2A [6] = target: human G2A (Homo sapiens, UniProt Q9UNW8); conditions: compared with T-10418; 15 min after addition
Target sequence in this assay (P32121 whole entry partner, one chain of several): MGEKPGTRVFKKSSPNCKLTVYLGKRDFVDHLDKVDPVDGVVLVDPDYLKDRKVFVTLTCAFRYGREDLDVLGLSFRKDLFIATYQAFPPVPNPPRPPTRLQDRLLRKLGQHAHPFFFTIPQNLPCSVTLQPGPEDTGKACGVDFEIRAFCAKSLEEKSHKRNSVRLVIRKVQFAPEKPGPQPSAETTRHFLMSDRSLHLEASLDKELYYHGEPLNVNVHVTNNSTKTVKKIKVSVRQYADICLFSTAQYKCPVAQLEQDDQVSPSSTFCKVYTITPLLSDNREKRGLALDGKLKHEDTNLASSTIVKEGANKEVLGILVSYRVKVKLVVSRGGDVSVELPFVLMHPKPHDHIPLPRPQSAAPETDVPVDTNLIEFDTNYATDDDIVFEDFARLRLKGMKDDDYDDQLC

Aqueous solubility = conditions: PBS with 1% DMSO, pH 7.4, aqueous solubility, PBS buffer
GPR1 = GPR1 (Homo sapiens, UniProt P46091); assay type: cell-based; conditions: 60 μM, no endogenous ligand applied
Sequence of GPR1 (P46091 whole entry): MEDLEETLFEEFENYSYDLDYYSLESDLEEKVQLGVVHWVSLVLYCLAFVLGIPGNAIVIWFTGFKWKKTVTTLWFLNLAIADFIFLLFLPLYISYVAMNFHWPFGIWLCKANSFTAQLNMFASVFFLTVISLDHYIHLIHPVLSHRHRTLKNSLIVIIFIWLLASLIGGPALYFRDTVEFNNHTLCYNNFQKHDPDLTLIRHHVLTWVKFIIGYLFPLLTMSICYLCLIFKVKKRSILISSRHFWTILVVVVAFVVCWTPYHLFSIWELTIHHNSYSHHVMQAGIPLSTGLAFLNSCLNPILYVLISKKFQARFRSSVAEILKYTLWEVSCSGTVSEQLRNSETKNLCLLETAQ
Sequence of GPR1 (P32121 whole entry partner): as the sequence (P32121 whole entry partner, one chain of several) above

ML-2 cells = experiment: IP-One assay in AML cells; assay type: cell-based; conditions: 90 minutes stimulation
[7] = Metabolic stability in rat liver microsomes; conditions: Sprague–Dawley rat liver microsomes
human G2A [8] = target: T1, human G2A (Homo sapiens, UniProt Q9UNW8); conditions: ratio of EC50 values
T1 sequence (Q9UNW8 1-380): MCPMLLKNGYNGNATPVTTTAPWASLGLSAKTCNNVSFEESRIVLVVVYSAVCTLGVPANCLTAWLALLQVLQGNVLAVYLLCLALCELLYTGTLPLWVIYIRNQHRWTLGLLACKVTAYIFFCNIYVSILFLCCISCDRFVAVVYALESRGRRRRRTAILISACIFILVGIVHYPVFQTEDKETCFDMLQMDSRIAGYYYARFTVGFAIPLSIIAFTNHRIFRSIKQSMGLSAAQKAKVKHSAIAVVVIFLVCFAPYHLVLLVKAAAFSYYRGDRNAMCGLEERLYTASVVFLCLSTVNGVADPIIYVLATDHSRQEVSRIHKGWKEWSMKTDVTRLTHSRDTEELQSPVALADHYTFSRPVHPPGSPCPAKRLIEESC

Molm-13 cells = experiment: IP-One assay in AML cells; assay type: cell-based; conditions: 90 minutes stimulation
[9] = Pharmacokinetics in male C57Bl/6N mice
[10] = test system: CHO-K1 cells overexpressing only GNA11 but not G2A; conditions: control cells without G2A; ONC compounds at ≥ 30 μM
G2A = conditions: weak antagonist of G2A; cited from earlier work

With `Cc1ccccc1CN1C(=O)C2=C(CCN(Cc3ccccc3)C2)N2CCN=C12` [ONC201] the induction of apoptosis (ML-2 [1]) was “induction of apoptosis could be confirmed”, the induction of apoptosis (Molm-13 [2]) was “induction of apoptosis could be confirmed” and the viable cells (Molm-13 [3]) was “strong reduction in viable”. The viable cells (ML-2 [4]) was “strong reduction in viable”.

In the case of `COc1ccc(-c2cc(C(=O)N[C@@H](Cc3ccccc3)C(=O)NC3CCCCC3)ccc2O)cc1` [Compound 56, (S)-N-(1-(Cyclohexylamino)-1-oxo-3-phenylpropan-2-yl)-6-hydroxy-4′-methoxy-[1,1′-biphenyl]-3-carboxamide], the “effect on TRPV1 sensitization by T-10418 (100 nM) and 9-HODE (400 nM)” value ([5]; cotreatment with 10 μM antagonist) was “completely abolished”.

For `CCCCC/C=C\C=C\[C@H](O)CCCCCCCC(=O)O` [9(R)-HODE], the βarr2 recruitment response (human G2A [6]) was “did not result in any observable NanoLuc complementation”.

For `O=C(NC(Cc1ccccc1)C(=O)O)c1cccc(OCc2cccnc2)c1` (centres unmarked) [Compound 1], the “sensitization of capsaicin-induced TRPV1 responses” value ([5]; 1 μM compound, 2 min, capsaicin 100 nM 30 s) was “potently sensitize for capsaicin-induced TRPV1 responses; also recorded: comparable to that observed with 200 nM (±)9-HODE”.

For `O=C(N[C@H](Cc1ccccc1)C(=O)O)c1cccc(OCc2cccnc2)c1` [Compound 3, (R)-3-Phenyl-2-(3-(pyridin-3-ylmethoxy)benzamido)propanoic Acid], the solubility (Aqueous solubility) was over 3000 µM, the “partial agonism, share of maximal βarr2 recruitment observed with C9” value (GPR1) was “approximately 50%” and the “activation of the Gq pathway (IP-1)” value (ML-2 cells) was “could not detect any activation of the Gq pathway”. For the same compound, the “rat liver microsomes (remaining after 60 min)” value [7] was 98% ^c, the “times more active than the (S) distomer 2” value (human G2A [8]) was “more than 30 times” and the “activation of the Gq pathway (IP-1)” value (Molm-13 cells) was “could not detect any activation of the Gq pathway”. The CL ([9]; 10 mg/kg sc) was 140.8 mL/min/kg and the “behavior and clinical signs after dosing” value ([9]; iv or sc in PBS) was “no clinical signs observed”.

In the case of `CCCCC/C=C\C=C\C(O)CCCCCCCC(=O)O` (centres unmarked) [9-HODE], the “increase in IP-1 not mediated by the receptor” value [10] was “not been observed”, the “activation of the Gq pathway (IP-1)” value (ML-2 cells) was “could not detect any activation of the Gq pathway” and the βarr2 recruitment response (human G2A [6]) was “unable to stimulate the same degree of β-arrestin recruitment”. The “activation of the Gq pathway (IP-1)” value (Molm-13 cells) was “could not detect any activation of the Gq pathway”.

For `O=C1C2=C(CCN(Cc3ccccc3)C2)N2CCN=C2N1Cc1ccc(C(F)(F)F)cc1` [ONC212], the “increase in IP-1 not mediated by the receptor” value [10] was “substantial increase in IP-1”, the “activation of the Gq pathway (IP-1)” value (ML-2 cells) was “could not detect any activation of the Gq pathway” and the “activation of the Gq pathway (IP-1)” value (Molm-13 cells) was “could not detect any activation of the Gq pathway”.

In the case of lysophosphatidylcholine [LPC], the pIC50 (G2A) is listed as under 5.00.
